From ChEMBL document CHEMBL1157941, “Sapinmusaponins F-J, bioactive tirucallane-type saponins from the galls of Sapindus mukorossi” (J Nat Prod, 2006)

Assays:
Platelet [1] = assay: Inhibition of […]-induced platelet aggregation in citreated rabbit platelet-rich plasma by turbidimetric method; type: functional; conditions: Oryctolagus cuniculus
Platelet [2] = assay: Inhibition of U46619-induced platelet aggregation in citreated rabbit platelet-rich plasma by turbidimetric method; type: functional; conditions: Oryctolagus cuniculus
Platelet [3] = assay: Inhibition of thrombin-induced platelet aggregation in citreated rabbit platelet-rich plasma by turbidimetric method; type: functional; conditions: Oryctolagus cuniculus
Platelet [4] = assay: Inhibition of arachidonic acid-induced platelet aggregation in citreated rabbit platelet-rich plasma by turbidimetric method; type: functional; conditions: Oryctolagus cuniculus
[5] = Cytotoxicity against rabbit platelet assessed as LDH release; type: cell-based, Oryctolagus cuniculus; set-up: concentration or dose not given beside the values
Raji [6] = assay: Inhibition of 12-O-tetradecanoylphorbol-13-acetate induced EBV-early antigen activation in human Raji cells assessed as EA activation at 10 molar ratio after 48 hrs relative to TPA; type: cell-based; set-up: scale not given: the % may be the effect or the level left; conditions: human gammaherpesvirus 4
Raji [7] = assay: Inhibition of 12-O-tetradecanoylphorbol-13-acetate induced EBV-early antigen activation in human Raji cells assessed as EA activation at 100 molar ratio after 48 hrs relative to TPA; type: cell-based; set-up: scale not given: the % may be the effect or the level left; conditions: human gammaherpesvirus 4
Raji [8] = assay: Inhibition of 12-O-tetradecanoylphorbol-13-acetate induced EBV-early antigen activation in human Raji cells assessed as EA activation at 500 molar ratio after 48 hrs relative to TPA; type: cell-based; set-up: scale not given: the % may be the effect or the level left; conditions: human gammaherpesvirus 4
Raji [9] = assay: Inhibition of 12-O-tetradecanoylphorbol-13-acetate induced EBV-early antigen activation in human Raji cells assessed as EA activation at 1000 molar ratio after 48 hrs relative to TPA; type: cell-based; set-up: scale not given: the % may be the effect or the level left; conditions: human gammaherpesvirus 4
[10] = Cytotoxicity against human Raji cells assessed as cell viability at 1000 molar ratio by trypan blue assay; type: cell-based; conditions: read-out: Activity

SMILES	IC50 (Platelet [1])	IC50 (Platelet [2])	IC50 (Platelet [3])	IC50 (Platelet [4])	Activity [5]	Activity (Raji [6])	Activity (Raji [7])	Activity (Raji [8])	Activity (Raji [9])	viability at 1000 molar ratio [10]
CC(C)=CCC(O)[C@@](C)(O)[C@H]1CC[C@]2(C)[C@@H]1CC[C@@H]1[C@@]3(C)CC[C@H](O[C@@H]4O[C@H](CO)[C@@H](O)[C@H](O)[C@H]4O[C@@H]4O[C@@H](C)[C@H](O)[C@@H](O)[C@H]4O)C(C)(C)[C@@H]3C[C@H](O)[C@]12C (some centres undefined) [SAPINMUSAPONIN A]	> 100 µM	> 100 µM	> 100 µM	> 100 µM	62.3%	–	–	–	–	–
CC(C)=CC(O)C(O)[C@@](C)(O)[C@H]1CC[C@]2(C)[C@@H]1CC[C@@H]1[C@@]3(C)CC[C@H](O[C@@H]4O[C@H](CO)[C@@H](O)[C@H](O)[C@H]4O[C@@H]4O[C@@H](C)[C@H](O)[C@@H](O)[C@H]4O)C(C)(C)[C@@H]3C[C@H](O)[C@]12C (some centres undefined) [SAPINMUSAPONIN B]	> 100 µM	> 100 µM	> 100 µM	> 100 µM	62.3%	–	–	–	–	–
C[C@@H]1O[C@@H](O[C@H]2[C@H](O[C@H]3CC[C@]4(C)[C@H]5CC[C@@H]6[C@@H]([C@](C)(O)C(O)/C=C/C(C)(C)O)CC[C@@]6(C)[C@]5(C)[C@@H](O)C[C@H]4C3(C)C)O[C@H](CO)[C@@H](O)[C@@H]2O)[C@H](O)[C@H](O)[C@H]1O (some centres undefined) [SAPINMUSAPONIN C]	> 100 µM	> 100 µM	> 100 µM	> 100 µM	62.3%	–	–	–	–	–
COC(C)(C)/C=C/C(O)[C@@](C)(O)[C@H]1CC[C@]2(C)[C@@H]1CC[C@@H]1[C@@]3(C)CC[C@H](O[C@@H]4O[C@H](CO)[C@@H](O)[C@H](O)[C@H]4O[C@@H]4O[C@@H](C)[C@H](O)[C@@H](O)[C@H]4O)C(C)(C)[C@@H]3C[C@H](O)[C@]12C (some centres undefined) [SAPINMUSAPONIN D]	> 100 µM	> 100 µM	> 100 µM	> 100 µM	62.3%	–	–	–	–	–
CO[C@H]1O[C@H](C=C(C)C)C[C@H]1[C@@H]1CC[C@]2(C)C3=CC[C@H]4C(C)(C)[C@@H](O[C@@H]5O[C@H](CO[C@@H]6O[C@@H](C)[C@H](O)[C@@H](O)[C@H]6O)[C@@H](O)[C@H](O)[C@H]5O)CC[C@]4(C)[C@H]3CC[C@@]12C [SAPINMUSAPONIN F]	7.7 µM	3.4 µM	8.4 µM	6.7 µM	< 10%	100%	82.6%	53.6%	9.1%	60%
CO[C@@H]1O[C@H](C=C(C)C)C[C@H]1[C@@H]1CC[C@]2(C)C3=CC[C@H]4C(C)(C)[C@@H](O[C@@H]5O[C@H](CO[C@@H]6O[C@@H](C)[C@H](O)[C@@H](O)[C@H]6O)[C@@H](O)[C@H](O)[C@H]5O)CC[C@]4(C)[C@H]3CC[C@@]12C [SAPINMUSAPONIN G]	13.5 µM	5.4 µM	8.9 µM	12.5 µM	< 10%	100%	83.7%	53.9%	9.7%	60%
CO[C@@H]1O[C@H](C=C(C)C)C[C@H]1[C@@H]1CC[C@]2(C)C3=CC[C@H]4C(C)(C)[C@@H](O[C@@H]5O[C@H](CO)[C@@H](O)[C@H](O)[C@H]5O[C@@H]5O[C@@H](C)[C@H](O)[C@@H](O)[C@H]5O)CC[C@]4(C)[C@H]3CC[C@@]12C [SAPINMUSAPONIN H]	4.6 µM	16.3 µM	> 100 µM	71.5 µM	< 10%	100%	83.7%	54.4%	11%	60%
CO[C@H]1O[C@H](C=C(C)C)C[C@H]1[C@@H]1CC[C@]2(C)C3=CC[C@H]4C(C)(C)[C@@H](O[C@@H]5O[C@H](CO[C@@H]6O[C@@H](C)[C@H](O)[C@@H](O)[C@H]6O)[C@@H](O)[C@H](O)[C@H]5O[C@@H]5O[C@@H](C)[C@H](O)[C@@H](O)[C@H]5O)CC[C@]4(C)[C@H]3CC[C@@]12C [SAPINMUSAPONIN I]	11.8 µM	–	41.4 µM	2.3 µM	< 10%	100%	82.6%	60.5%	14.3%	60%
